Data set [1] is described as follows: Selectivity index, ratio of TC50 for African green monkey Vero cells to MIC for Mycobacterium tuberculosis H37Rv ATCC 25618.
The nature of data set [2]: Cytotoxicity against African green monkey Vero cells after 2 days by luminescent assay. Type of data set: cell-based. To be noted: chlorocebus sabaeus, read-out: TC50.
Data set [3] is described as follows: Thermodynamic equilibrium solubility of the compound using 10 mM DMSO at pH 2. The data set is classed as physicochemical. To be noted: buffer, read-out: Therm_solubility.
Data set [4] is described as follows: Metabolic stability of the compound in rat liver microsomes assessed as compound turnover at 2 uM after 30 mins by LC-MS analysis. The data set is classed as ADME. To be noted: read-out: Drug metabolism. (Liver microsomes are vesicles of endoplasmic reticulum, rich in cytochrome P450 enzymes.)
Data set [5] is described as follows: Metabolic stability of the compound in human liver microsomes assessed as compound turnover at 2 uM after 30 mins by LC-MS analysis. To be noted: read-out: Drug metabolism. Type of data set: ADME.
The nature of data set [6]: Fraction unbound in mouse plasma after 4.5 hrs by LC-MS/MS analysis. Type of data set: ADME, cell-free.
Data set [7] has as its system Mycobacterium tuberculosis. The experiment in a line: Antitubercular activity against Mycobacterium tuberculosis H37Rv ATCC 25618 under aerobic condition after 5 days. The data set is classed as functional. The settings on record: H37Rv ATCC 25618, 120 h.
Data set [8] can be described thus: Thermodynamic equilibrium solubility of the compound using 10 mM DMSO at pH 7.4. The data set is classed as physicochemical. To be noted: buffer, read-out: Therm_solubility.
In the next data set the test system is MDCK. The experiment in a line: Passive permeability of the compound from apical to basolateral direction in MDCK cells at 10 uM in presence of P-gp inhibitor. Type of data set: ADME, cell-based, Canis lupus familiaris. The settings on record: dog.
Data set [9] has as its system Mycobacterium tuberculosis. As to the kind of experiment: Bactericidal activity against replicating Mycobacterium tuberculosis at 1 to 10 times MIC after 21 days. The data set is classed as functional, organism-based.
The nature of data set [10]: Thermodynamic equilibrium solubility of the compound using 10 mM DMSO at pH 6. The data set is classed as physicochemical. The settings on record: buffer, read-out: Therm_solubility.
Data set [11] is described as follows: Metabolic stability of the compound in mouse liver microsomes assessed as compound turnover at 2 uM after 30 mins by LC-MS analysis. The data set is classed as ADME. To be noted: read-out: Drug metabolism.
In data set [12] the test system is Mycobacterium tuberculosis. The experiment in a line: Antitubercular activity against Mycobacterium tuberculosis H37Rv. The data set is classed as functional.
In data set [13] the test system is Mycobacterium tuberculosis. As to the kind of experiment: Bactericidal activity against replicating Mycobacterium tuberculosis assessed as log reduction CFU at 1 to 10 times MIC after 21 days. Type of data set: functional.
Data set [14] deals with Mycobacterium tuberculosis. As to the kind of experiment: Bactericidal activity against nonreplicating Mycobacterium tuberculosis assessed as log reduction CFU at MIC after 21 days. Type of data set: functional.
Data set [15] has as its system Mycobacterium tuberculosis. The experiment in a line: Ratio of MBC to MIC for replicating Mycobacterium tuberculosis at 1 to 10 times MIC after 21 days. The data set is classed as functional.
Data set [16] deals with Mycobacterium tuberculosis. The experiment in a line: Bactericidal activity against nonreplicating Mycobacterium tuberculosis assessed as log reduction CFU at 1 to 10 times MIC after 21 days. The data set is classed as functional.
Data set [17] deals with Mycobacterium tuberculosis. As to the kind of experiment: Antitubercular activity against Mycobacterium tuberculosis after 21 to 28 days by serial proportion method. Type of data set: functional.
A further data set deals with Staphylococcus aureus. The experiment in a line: Antimicrobial activity against Staphylococcus aureus after 2 days by serial proportion method. The data set is classed as functional. The settings on record: 48 h.
Data set [18] deals with Mycolicibacterium smegmatis. The experiment in a line: Antimicrobial activity against Mycobacterium smegmatis MC2 155 after 5 to 7 days by serial proportion method. To be noted: str. MC2 155. Type of data set: functional.
For the next data set, the system named is Escherichia coli. As to the kind of experiment: Antimicrobial activity against Escherichia coli after 1 day by serial proportion method. The data set is classed as functional. To be noted: 24 h.

≈ marks a conversion by molar mass, not a printed value. Calls of active or inactive are those of the source. The rule behind the calls is not given here. Where only a bound is given, the exact number is not on record here.

The fraction unbound is the share of the substance not bound to proteins or other matrix. Broadly, the MIC is the lowest concentration found to suppress growth. As for `CCc1nc2ccccc2n1CCCCNc1ccccc1`, in data set [1], the Ratio was 89. In data set [2], the CC50 at 48 h worked out at 42 µM. The solubility thermodynamic was 610 µg/mL (≈ 2080 µM) in [3], < 1 µg/mL in [8] and 10 µg/mL (≈ 34.1 µM) in data set [10]. In addition, the metabolised at 0.5 h, 2 µM in data set [4] amounted to 99.9%; in data set [5] it was 90.6%; in [11], 99.9%. Further, the fraction unbound at 4.5 h in [6] stood at 0.045. This compound also returned an MIC in [7] of 0.47 µM (≈ 0.138 µg/mL). Further, in the data set on MDCK, the permeability worked out at 21.5%. For the same compound, the result in data set [9] was inactive.
Regarding `CCc1nc2ccccc2n1CCCOc1ccccc1`, the Ratio is on record as >9.6 in [1] and >4 in [15]. The results for the MIC in data set [12] and in data set [7] were 3.4 µM (≈ 0.953 µg/mL) and 5.2 µM (≈ 1.46 µg/mL), respectively. Further, in data set [2], the CC50 at 48 h was > 50 µM. The figures for the FC in [13], in data set [14] and in data set [16] were 2, >3 and >3, respectively.
For the compound `CCc1nc2cc(Cl)ccc2n1CCCCOc1ccccc1`, the Ratio in data set [1] is recorded as 53. Moreover, the CC50 at 48 h in data set [2] turned out to be 16 µM. Also, the solubility thermodynamic is 670 µg/mL (≈ 2040 µM) in data set [3], < 1 µg/mL in [8] and < 1 µg/mL in [10]. Besides, the figures for the metabolised at 0.5 h, 2 µM in data set [4], in data set [5] and in data set [11] were 99.7%, 98.5% and 99.8%, respectively. In [6], this compound yielded an unbound share (fraction unbound) at 4.5 h of 0.004. In data set [7], the lowest concentration to inhibit growth (MIC) was 0.3 µM (≈ 0.0987 µg/mL). The permeability in the data set on MDCK is on record as 3.6%.
As a reminder, the MIC99 is an inhibitory concentration at the 99% level, which refers to growth in some studies and to a panel of isolates in others. For `CCc1nc2ccccc2n1CCCCSc1nnc(-c2ccc(Cl)cc2)o1`, the Ratio in data set [1] is reported as 220. Further, the CC50 at 48 h in data set [2] was determined as 22 µM. Further, the solubility thermodynamic in data set [3] was 830 µg/mL (≈ 2010 µM); in [8] it was < 1 µg/mL; in data set [10] it was < 1 µg/mL. For the same compound, the FC in data set [14] and in data set [16] was >3 each time. In addition, the metabolised at 0.5 h, 2 µM was found to be 99.9% in data set [4], 99.9% in data set [5] and 99.8% in data set [11]. In addition, the MIC99 is 2.5 µM (≈ 1.03 µg/mL) in data set [17], > 100 µM against Staphylococcus aureus, > 100 µM in data set [18] and > 100 µM with Escherichia coli. Further, the fraction unbound at 4.5 h in data set [6] amounted to 0.006. The MIC in data set [7] amounted to 0.1 µM (≈ 0.0413 µg/mL). Further, the permeability in the data set on MDCK came to 4.4%. Moreover, in data set [9], the outcome was inactive.
Turning to `CCc1nc2ccccc2n1CCCCOc1ccccc1`, the Ratio in data set [1] came out at 19. Moreover, the CC50 at 48 h in data set [2] worked out at 21 µM. In addition, the MIC99 in data set [17] is 5 µM (≈ 1.47 µg/mL); in the data set with Staphylococcus aureus, > 100 µM; in data set [18] it was > 100 µM; in the data set on Escherichia coli, > 100 µM. This compound registered an MIC in [7] of 1.1 µM (≈ 0.324 µg/mL).
In the case of `CCc1nc2ccc(C)cc2n1CCCCOc1ccccc1`, the Ratio in data set [1] was 67. For the same compound, the CC50 at 48 h in data set [2] came to 18 µM. Also, the solubility thermodynamic amounted to 630 µg/mL (≈ 2040 µM) in data set [3], 10 µg/mL (≈ 32.4 µM) in data set [8] and 40 µg/mL (≈ 130 µM) in data set [10]. The values for the metabolised at 0.5 h, 2 µM in data set [4], in [5] and in data set [11] were 99.9%, 98.9% and 99.9%, respectively. The MIC in data set [7] was determined as 0.27 µM (≈ 0.0833 µg/mL).
Consider `CCc1nc2ccccc2n1CCCCSc1ccccc1`, for which the Ratio in data set [1] came to 22. For the same compound, in [2], the CC50 at 48 h is 31 µM. Further, the MIC99 was 10 µM (≈ 3.1 µg/mL) in data set [17], > 100 µM with Staphylococcus aureus, > 100 µM in data set [18] and > 100 µM in the data set on Escherichia coli. For the same compound, the MIC in data set [7] stood at 1.4 µM (≈ 0.435 µg/mL).

These data come from ChEMBL document CHEMBL3616434, “Identification of Phenoxyalkylbenzimidazoles with Antitubercular Activity” (J Med Chem, 2015).
